Measurements reported in patent US6409995B1, “Use of amino-substituted hydroxybenzophenones as photostable UV filters in cosmetic and pharmaceutical preparations” (BASF Aktiengesellschaft, priority 1999, dated 2002).

How the values were obtained:
[1] = used alone or in combination with UV-B filters; cited from earlier work
[2] = UV absorption of the compounds (absorption maximum and specific absorbance); assay type: physicochemical; settings: for λmax: UV absorption maximum; for E^11: specific absorbance at λmax

Row | SMILES | melting point | λmax [2] | E^11 [2] | photochemical stability [1]
1 | COc1ccc(C(=O)CC(=O)c2ccc(C(C)(C)C)cc2)cc1 [PARSOL 1789, 4-(1,1-dimethylethyl)-4′-methoxydibenzoylmethane] | – | – | – | does not have sufficient photochemical stability
2 | CCN(CC)c1ccc(C(=O)c2ccccc2)c(O)c1 [Example 2, 4-diethylamino-2-hydroxyphenyl phenyl ketone] | 46 to 48 °C | 359 nm | 1280 | –
3 | CCN(CC)c1ccc(C(=O)c2ccccc2C(=O)OC)c(O)c1 [Example 1, Methyl 2-(4-diethylamino-2-hydroxybenzoyl)benzoate] | – | 354 nm | 1173 | –

Continued, in another order:

Row | melting point | λmax [2] | E^11 [2] | SMILES | photochemical stability [1]
4 | 164 °C | 355 nm | 1179 | COC(=O)c1ccccc1C(=O)c1ccc(N2CCCC2)cc1O [Example 4] | –
5 | 203 °C | 355 nm | 1167 | O=C(O)c1ccccc1C(=O)c1ccc(N2CCCC2)cc1O [Example 3] | –
